Reference: article PMC11039730, “In situ captured antibacterial action of membrane-incising peptide lamellae” (Nature Communications, 2024)
Converted amounts (≈) assume the structure as drawn. Like-named read-outs stand apart in the source and are kept apart here.

Key:
[1] = ANS binding fluorescence (assembly formation); format: physicochemical; details: 125 μM peptide, 2.5 μM ANS, mean of 3
Method: Fluorescence spectra were recorded using a JASCO FP-8500 spectrofluorometer with an excitation and emission bandwidth of 10 nm and 20 nm, respectively. Three accumulations were measured each time. The 8-anilino-1-naphthalenesulfonic acid (ANS) fluorophore was excited at 388 nm and the emission was recorded from 410 to 600 nm. Binding assays were performed using 125 μM peptide (50 μL) and 2.5 μM ANS. Spectra were corrected for those of the corresponding peptide solutions. page 11: Supplementary Figure 8: ANS binding capacity is higher for 3K and in phosphate media. ANS binding of 2K and 3K (125 μM) were tested in the indicated media using the ANS probe at 2.5 μM. The emission intensities at the maxima were read, and values were normalized for that of unbound ANS. Gray line highlights the reference signal of free ANS. In all tested media, higher ANS binding was detected for 3K over 2K. […] Error bars represent the standard deviation of the mean for three independent experiment sets. 11 (1 picture or pasted object on this page, not shown here)

[2] = test system: BL21 DE3 Escherichia coli strain; format: cell-based
Method: To investigate the antimicrobial effect of lamellin-2K and lamellin-3K, we used the BL21 DE3 Escherichia coli strain with chromosomal resistance to chloramphenicol. The inoculum was grown overnight in the presence of 30 μM chloramphenicol. 0.5 mL of this inoculum was diluted into 50 mL fresh LB medium and grown till the optical density at 600 nm reached 0.5−0.6 indicating an exponential growth phase. Cells were then centrifuged at 3220 g at 4 °C for 20 min, washed twice in the assay medium (MQ water, 10 mM PBS, or 0.15 mM NaCl), then resuspended in 5 mL of the same medium. 10 μL cell suspension was diluted with the peptide solution to a final concentration of 250 μM, 125 μM, 60 μM, 30 μM, 10 μM, 5 μM, 1 μM and 0 μM (control) in 100 μl volume and incubated for 2 h in sterile, low-bind, U-bottom 96-well microplates (Greiner Bio-One, Hungary) with oxygen penetrating lid at 37 °C, at continuous shaking in a BioTek Synergy Mx plate reader. Aliquots from the wells were taken for the quantification of bacterial viability on LB agar plates after incubation at 37 °C for 16 h to obtain CFU/mL data. Treatments were performed in three biological replicates, each of which in three technical replicates.
Supplementary Figure 26: Antibacterial activity of 2K and 3K in the presence and absence of phosphate ions. a) Growth inhibition curves. Exponentially growing E. coli BL21 shaker cultures were exposed to the peptides at 37 °C in various media for 120 min. Treatments were performed in three biological replicates, each of which in three technical replicates. Data represent mean and error bars represent SEM. Data points are connected to guide the eye. b) Viability curves calculated from growth inhibition data in (a). Smooth lines are sigmoid fits to […]
Supplementary Table 6: Antimicrobial activity of 2K and 3K in various media. […]
* IC values are calculated from sigmoid fits to the viability vs. log(c) data points.
All errors are standard errors. […]

[3] = test system: MonoMac 6 human monocytic cells; format: cell-based; details: 2 h, AlamarBlue, mean ± SEM, n = 4
Method: To evaluate the cytotoxicity of the compounds, AlamarBlue viability assay was performed on MonoMac 6 human monocytic cells (DSMZ no.: ACC 124, Braunschweig, Germany). […] Cells were maintained as an adherent culture in RPMI-1640 media (Lonza, Basel), supplemented with 10% FCS, L-glutamine (2 mM) and penicillin/streptomycin (50 IU/mL and 50 μg/mL) at 37 °C in a humidified atmosphere containing 5% CO2. On the day of the experiment, cells were washed twice with serum-free RPMI or with TRIS-HCl buffer (0.1 M, pH = 7.4) and plated in 96-well flat-bottom tissue culture plates (Sarstedt) (20,000 cells). 250 μM of the lamellin-3K was dissolved and serially diluted (125 μM, 62.5 μM, 31.25 μM, 15.63 μM, 7.81 μM, 3.91 μM, 1.95 μM) in the corresponding assay medium and added to the cells. The final concentration range was between 1.95 and 250 μM and the final volume was 100 μL. […] Following a 2 h of incubation, the fluorescence was measured at λEx = 530/30 and λEm = 610/10 nm using a Synergy H4 multi-mode microplate reader (BioTek). The percent of viability was calculated compared to untreated control wells. […] IC50 values were calculated from the dose-response curves, after fitting with sigmoidal funcion using the GraphPad Prism software package. […]
parallel experiments and error bars represent SEM. The viability percentage was calculated relative to the untreated […]

[4] = physchem; format: physicochemical; details: aqueous buffer
Method: For assignment purposes, appropriate amounts of lyophilized solid lamellin-2K (or lamellin-3K, respectively) were dissolved in H2O to prepare ~1 mM solutions, followed by 15 min sonication and addition of 10% D2O. For monitoring the effects of different solvents, the lyophilized lamellin-2K and lamellin-3K were dissolved in PBS, sonicated for 30 min, further on 10% D2O was added. For 2K, the concentration of the lamellin was ~250 μM and the solution contained PBS. […] After each addition, the solution was sonicated for 30 min. All samples were measured at 298 K. […]
Supplementary Figure 7: a) and b) Overlay of 1D 1H spectra in water (c = 1 mM, dark colour) and in PBS (light colour) for 2K (green) and 3K (blue), respectively. Concentration in PBS was ~ 250 µM for 2K and ~ 20 µM for 3K. c) and d) Regions of overlaid 1H-1H TOCSY (green) and 1H-1H ROESY (red) for 2K, indicating sequential connectivities. e) Variation of the 3K concentration during PBS titration determined from the integration of leucine […]

[5] = 10 mM PBS, 2 h at 37 °C, CFU on LB agar, sigmoid fit, ± standard error, 3 biological replicates
[6] = NaCl (0.15 mM [sic] NaCl), 2 h at 37 °C, CFU on LB agar, sigmoid fit, ± standard error, 3 biological replicates

Structure (SMILES)	ANS fluorescence, Mean ([1]; H2O)	ANS fluorescence, Mean ([1]; NaCl)	ANS fluorescence, Mean ([1]; PBS)	ANS fluorescence, Mean ([1]; phosphate)	IC20 [2, 5]	IC80 [2, 5]	IC80 ([2]; MQ water, 2 h at 37 °C, CFU on LB agar, sigmoid fit to viability vs log(c), ± standard error, 3 biological replicates)	IC20 ([2]; MQ water, 2 h at 37 °C, CFU on LB agar, sigmoid fit, ± standard error, 3 biological replicates)	IC20 [2, 6]	IC80 [2, 6]	IC50 ([3]; RPMI (phosphate-containing, 5.6 mM Na2HPO4))	IC50 ([3]; Tris-HCl (phosphate-free, 0.1 M, pH 7.4))	solubility thermodynamic at 30 min [4]	IC50 ([2]; 10 mM PBS, 2 h at 37 °C, CFU on LB agar, sigmoid fit, ± standard error, 3 biological replicates, read-out: IC50)	IC50 ([2]; BL21, 2 h)	IC50 ([2]; MQ water (phosphate-free), 2 h at 37 °C, CFU on LB agar, sigmoid fit, ± standard error, 3 biological replicates, read-out: IC50)
CCCC(=O)N[C@H](CC(=O)N[C@@H](CC(=O)N[C@@H](CCCCN)CC(=O)N[C@@H](CC(=O)N[C@@H](CCCCN)CC(=O)N[C@@H](CC(N)=O)CC(C)C)CC(C)C)CC(C)C)CC(C)C [2K]	1.52 arb. units	1.24 arb. units	5.15 arb. units	11.66 arb. units	46.1 ± 4.07 µM	77.7 ± 3.93 µM	11.2 ± 0.373 µM	7.06 ± 0.343 µM	54 ± 12.2 µM	74.2 ± 10.8 µM	–	–	–	–	–	–
CCCC(=O)N[C@H](CC(=O)N[C@@H](CC(=O)N[C@@H](CCCCN)CC(=O)N[C@@H](CC(=O)N[C@@H](CCCCN)CC(=O)N[C@@H](CC(=O)N[C@@H](CCCCN)CC(=O)N[C@@H](CC(N)=O)CC(C)C)CC(C)C)CC(C)C)CC(C)C)CC(C)C [3K]	3.21 arb. units	7.78 arb. units	14.27 arb. units	19.27 arb. units	9.27 ± 1.45 µM	14.6 ± 1.46 µM	–	–	4.22 ± 0.82 µM	7 ± 1.02 µM	126 ± 7.1 µM	112 ± 8.4 µM	~20 µM (≈ 23 µg/mL)	11.6 ± 1.5 µM	5.44 ± 0.91 µM	1.24 µM
